One data set deals with CB2 (Homo sapiens, UniProt P34972). The data set can be described thus: LANCE Ultra cAMP assay. In general terms: In TR-FRET formats the signal depends on donor and acceptor labels being close together.
For another data set, the system named is mouse bone marrow cells. The data set can be described thus: Macrophage polarization assay (M-CSF/IL-4/PGE2, M2 macrophages). The class given is cell-based. Particulars: M-CSF/IL-4/PGE2, 6 days, concentration-dependent. As to the method:
Single‐cell suspensions of mouse BM cells were prepared by filtering femurs and tibias of 6‐week‐old female BALB/c mice through 40‐μm cell strainers (Falcon). These suspensions were treated with red blood cell lysis buffer and replated in conditioned medium. Monocyte differentiation, MDSC induction, and macrophage polarization were analyzed by FACS analysis (BD Biosciences) with FlowJo software.
For macrophage polarization assay (De Henau et al., 2016; Tan et al., 2018), mouse BM cells were cultured in RPMI1640 medium supplemented with recombinant mouse M‐CSF (20 ng/ml, Peprotech) to generate BM‐derived macrophages (BMDM). For FACS analysis of BM‐derived M2‐like macrophage, IL‐4 (20 ng/ml, Peprotech) and PGE2 (10 nM) were added on day 0. TP‐16 was added simultaneously with PGE2 on day 0 or sequentially on day 3 for differentiation over a period of 6 days. For qPCR analysis of macrophages (day 6), BMDMs were polarized with IFNγ (50 ng/ml, Peprotech) or IL‐4 (20 ng/ml, Peprotech) ± PGE2 (10 nM) ± TP‐16 for 24 h at 37°C on day 6. The culture medium was refreshed every 3 days.

The test system of a further data set is CT26-Luc tumors. Briefly: CT26-Luc orthotopic colorectal cancer mouse model. The class given is in vivo.
The target of the next data set is T1, OPRD1 (Homo sapiens, UniProt P41143).
T1 construct: Pharmaron (Beijing, China), contract laboratory
T1 sequence (P41143 whole entry, species assumed): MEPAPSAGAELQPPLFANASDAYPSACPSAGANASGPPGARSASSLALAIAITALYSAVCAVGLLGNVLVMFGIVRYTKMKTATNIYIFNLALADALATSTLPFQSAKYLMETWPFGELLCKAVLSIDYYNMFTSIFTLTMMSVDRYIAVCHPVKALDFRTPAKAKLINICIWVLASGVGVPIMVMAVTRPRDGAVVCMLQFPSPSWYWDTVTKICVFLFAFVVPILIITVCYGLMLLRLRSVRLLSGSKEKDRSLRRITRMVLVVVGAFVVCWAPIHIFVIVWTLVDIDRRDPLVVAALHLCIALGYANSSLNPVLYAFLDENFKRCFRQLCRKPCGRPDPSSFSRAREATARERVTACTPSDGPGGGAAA
Briefly: GPCR calcium flux assay. Type of data set: cell-based.

The nature of data set [1]: In vitro metabolic stability using liver microsome. The class given is in vitro ADME. Particulars: mouse liver microsome. In general terms: Microsomes from liver hold many membrane-bound enzymes, among them those of drug oxidation.
The next data set deals with T2, AT1 (Homo sapiens, UniProt P30556).
T2 construct: Pharmaron (Beijing, China), contract laboratory
T2 sequence (P30556 whole entry): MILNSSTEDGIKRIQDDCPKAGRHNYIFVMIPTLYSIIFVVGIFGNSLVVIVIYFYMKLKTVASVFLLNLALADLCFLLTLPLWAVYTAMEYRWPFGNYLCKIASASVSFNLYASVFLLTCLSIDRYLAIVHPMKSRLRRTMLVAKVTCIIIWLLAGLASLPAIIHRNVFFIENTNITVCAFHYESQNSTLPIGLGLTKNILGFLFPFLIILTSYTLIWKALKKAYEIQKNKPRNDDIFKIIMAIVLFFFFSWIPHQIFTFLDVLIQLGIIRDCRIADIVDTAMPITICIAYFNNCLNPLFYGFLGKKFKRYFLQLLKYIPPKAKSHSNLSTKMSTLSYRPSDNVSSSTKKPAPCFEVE
The data set can be described thus: GPCR calcium flux assay. The class given is cell-based. Background: A change in cytosolic calcium serves as a functional read-out for many receptors and channels.

For another data set, the target named is T3, BB1 (Homo sapiens, UniProt P28336).
T3 construct: Pharmaron (Beijing, China), contract laboratory
T3 sequence (P28336 whole entry): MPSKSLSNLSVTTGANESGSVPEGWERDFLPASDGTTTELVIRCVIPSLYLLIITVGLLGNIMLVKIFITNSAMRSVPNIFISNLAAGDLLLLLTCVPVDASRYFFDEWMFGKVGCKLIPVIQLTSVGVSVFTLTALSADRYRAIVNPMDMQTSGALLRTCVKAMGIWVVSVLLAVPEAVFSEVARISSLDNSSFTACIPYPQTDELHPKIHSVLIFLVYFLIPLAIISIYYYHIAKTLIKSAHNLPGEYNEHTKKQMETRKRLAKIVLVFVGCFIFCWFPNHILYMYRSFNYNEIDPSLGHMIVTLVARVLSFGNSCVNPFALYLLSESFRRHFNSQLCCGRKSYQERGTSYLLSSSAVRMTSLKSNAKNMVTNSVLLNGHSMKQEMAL
The data set can be described thus: GPCR calcium flux assay. Type of data set: cell-based.

pIC50: −log10 of the molar value.

The pIC50 is the negative decadic logarithm of the IC50, by convention in mol/L. One may read the hepatocyte CLint as the capacity of the preparation to metabolise the compound, expressed as a volume cleared per time.

Chain of CB2 (P34972 whole entry, species assumed): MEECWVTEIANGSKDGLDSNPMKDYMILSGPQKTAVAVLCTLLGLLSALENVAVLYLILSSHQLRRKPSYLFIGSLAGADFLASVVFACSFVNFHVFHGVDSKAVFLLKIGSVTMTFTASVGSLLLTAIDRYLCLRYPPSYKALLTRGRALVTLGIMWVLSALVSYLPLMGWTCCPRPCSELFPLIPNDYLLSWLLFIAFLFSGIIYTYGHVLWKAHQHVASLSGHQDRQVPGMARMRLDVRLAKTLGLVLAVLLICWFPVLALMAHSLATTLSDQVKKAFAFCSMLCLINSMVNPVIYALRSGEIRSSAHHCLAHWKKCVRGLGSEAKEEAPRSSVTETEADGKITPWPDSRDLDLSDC

In the case of `C[C@H](NC(=O)c1c(Cc2ccc(F)cc2)sc2c1CCOC2)c1ccc(C(=O)O)cc1` [TP-16], the pIC50 on CB2, on OPRD1, on AT1 and on BB1 was less than 5.00 throughout. Further, the “PGE2-induced polarization of M2 macrophages” value in the data set on mouse bone marrow cells is listed as “significantly suppressed”. In addition, in the data set with CT26-Luc tumors (CT26-Luc orthotopic model), the “%TGI” value was found to be 76.22%. Also, the “body weight of tumor-bearing mice” value in the data set on CT26-Luc tumors (at the given doses) is given as “no significant change”. Also, the intrinsic clearance (hepatocyte CLint) in data set [1] (liver microsomes) is 5.91 µL/min/1e6 cells. For the same compound, in data set [1] (liver microsomes, read-out: In vitro T1/2), the half-life is 3.92 h. Besides, the CLhep predicted in data set [1] (liver microsomes, read-out: Predicted hepatic Clint) was 39.3 mL/min/kg. In data set [1] (liver microsomes, read-out: Scale-up Clint), the CLint scaled is 69.8 mL/min/kg. The “Remaining Percentages at 120 min” value in data set [1] was 70.6%.

Values taken from PMC7799360, “Reprogramming immunosuppressive myeloid cells facilitates immunotherapy for colorectal cancer” (EMBO Molecular Medicine, 2020).
